{
  "source": "patent US9992994B2",
  "about": "“Agricultural and detergent compositions containing a tertiary amide as adjuvant or as surfactant” (Taminco BVBA, priority 2011, dated 2018)",
  "experiment": "compatibility of diquats with anionic surfactant in water",
  "format": "physicochemical",
  "set-up": "key: Cl. = Clear; Blu. = Bluish; Visc. = Viscous; Prec. = Precipitate; Turb. = Turbid",
  "conditions": "1 wt % total surfactant in water, ambient temperature; for Compatibility observation, 100% of Diquat: 100% diquat; for Compatibility observation, 10% of Diquat / Compatibility observation, 20% of Diquat / Compatibility observation, 30% of Diquat / Compatibility observation, 40% of Diquat / Compatibility observation, 50% of Diquat / Compatibility observation, 60% of Diquat / Compatibility observation, 70% of Diquat / Compatibility observation, 80% of Diquat / Compatibility observation, 90% of Diquat: mixture with Sodium Laureth Sulfate; for Compatibility observation, 10% of Diquat: 10% diquat; for Compatibility observation, 20% of Diquat: 20% diquat; for Compatibility observation, 30% of Diquat: 30% diquat; for Compatibility observation, 40% of Diquat: 40% diquat; for Compatibility observation, 50% of Diquat: 50% diquat; for Compatibility observation, 60% of Diquat: 60% diquat; for Compatibility observation, 70% of Diquat: 70% diquat; for Compatibility observation, 80% of Diquat: 80% diquat; for Compatibility observation, 90% of Diquat: 90% diquat",
  "description": "To delimit the applicability of the Diquats the compatibility in different ratios with LES was tested in the temperature range between 0° C. and 90° C. […] With a hydrocarbon tail of up to 10 carbon atoms no precipitation was observed and with increasing chain length only a very narrow region of mixing ratios led to an insoluble deposit.",
  "data": [
    {"molecule": "CCCCCCCC(=O)N(CCC[N+](C)(C)Cc1ccccc1)CCC[N+](C)(C)Cc1ccccc1.[Br-].[Br-]", "note": "[C8BnBr]", "values": [
      {"measurement": "Compatibility observation, 100% of Diquat", "result": "Cl."},
      {"measurement": "Compatibility observation, 10% of Diquat", "result": "Cl."},
      {"measurement": "Compatibility observation, 20% of Diquat", "result": "Cl."},
      {"measurement": "Compatibility observation, 30% of Diquat", "result": "Cl."},
      {"measurement": "Compatibility observation, 40% of Diquat", "result": "Prec."},
      {"measurement": "Compatibility observation, 50% of Diquat", "result": "Prec."},
      {"measurement": "Compatibility observation, 60% of Diquat", "result": "Prec."},
      {"measurement": "Compatibility observation, 70% of Diquat", "result": "Prec."},
      {"measurement": "Compatibility observation, 80% of Diquat", "result": "Prec."},
      {"measurement": "Compatibility observation, 90% of Diquat", "result": "Prec."}
    ]},
    {"molecule": "CCCCCCCC(=O)N(CCC[N+](C)(C)C)CCC[N+](C)(C)C.[Cl-].[Cl-]", "note": "[C8MeCl]", "values": [
      {"measurement": "Compatibility observation, 100% of Diquat", "result": "Cl."},
      {"measurement": "Compatibility observation, 10% of Diquat", "result": "Cl."},
      {"measurement": "Compatibility observation, 20% of Diquat", "result": "Cl."},
      {"measurement": "Compatibility observation, 30% of Diquat", "result": "Cl."},
      {"measurement": "Compatibility observation, 40% of Diquat", "result": "Cl."},
      {"measurement": "Compatibility observation, 50% of Diquat", "result": "Cl."},
      {"measurement": "Compatibility observation, 60% of Diquat", "result": "Cl."},
      {"measurement": "Compatibility observation, 70% of Diquat", "result": "Cl."},
      {"measurement": "Compatibility observation, 80% of Diquat", "result": "Cl."},
      {"measurement": "Compatibility observation, 90% of Diquat", "result": "Cl."}
    ]},
    {"molecule": "CCCCCCCC[N+](C)(C)CCCN(CCC[N+](C)(C)CCCCCCCC)C(=O)CCCCCCC.[Br-].[Br-]", "note": "[C8OcBr]", "values": [
      {"measurement": "Compatibility observation, 100% of Diquat", "result": "Cl."},
      {"measurement": "Compatibility observation, 10% of Diquat", "result": "Cl."},
      {"measurement": "Compatibility observation, 20% of Diquat", "result": "Cl."},
      {"measurement": "Compatibility observation, 30% of Diquat", "result": "Blu."},
      {"measurement": "Compatibility observation, 40% of Diquat", "result": "Blu."},
      {"measurement": "Compatibility observation, 50% of Diquat", "result": "Turb."},
      {"measurement": "Compatibility observation, 60% of Diquat", "result": "Turb."},
      {"measurement": "Compatibility observation, 70% of Diquat", "result": "Turb."},
      {"measurement": "Compatibility observation, 80% of Diquat", "result": "Cl."},
      {"measurement": "Compatibility observation, 90% of Diquat", "result": "Cl."}
    ]},
    {"molecule": "CCCCCCCCCC(=O)N(CCC[N+](C)(C)C)CCC[N+](C)(C)C.[Cl-].[Cl-]", "note": "[C10MeCl]", "values": [
      {"measurement": "Compatibility observation, 100% of Diquat", "result": "Cl."},
      {"measurement": "Compatibility observation, 10% of Diquat", "result": "Cl."},
      {"measurement": "Compatibility observation, 20% of Diquat", "result": "Cl."},
      {"measurement": "Compatibility observation, 30% of Diquat", "result": "Cl."},
      {"measurement": "Compatibility observation, 40% of Diquat", "result": "Cl."},
      {"measurement": "Compatibility observation, 50% of Diquat", "result": "Turb."},
      {"measurement": "Compatibility observation, 60% of Diquat", "result": "Cl."},
      {"measurement": "Compatibility observation, 70% of Diquat", "result": "Cl."},
      {"measurement": "Compatibility observation, 80% of Diquat", "result": "Cl."},
      {"measurement": "Compatibility observation, 90% of Diquat", "result": "Cl."}
    ]},
    {"molecule": "CCCCCCCCCCCC(=O)N(CCC[N+](C)(C)C)CCC[N+](C)(C)C.[Cl-].[Cl-]", "note": "[C12MeCl]", "values": [
      {"measurement": "Compatibility observation, 100% of Diquat", "result": "Cl."},
      {"measurement": "Compatibility observation, 10% of Diquat", "result": "Cl."},
      {"measurement": "Compatibility observation, 20% of Diquat", "result": "Cl."},
      {"measurement": "Compatibility observation, 30% of Diquat", "result": "Cl."},
      {"measurement": "Compatibility observation, 40% of Diquat", "result": "Blu."},
      {"measurement": "Compatibility observation, 50% of Diquat", "result": "Cl."},
      {"measurement": "Compatibility observation, 60% of Diquat", "result": "Cl."},
      {"measurement": "Compatibility observation, 70% of Diquat", "result": "Cl."},
      {"measurement": "Compatibility observation, 80% of Diquat", "result": "Cl."},
      {"measurement": "Compatibility observation, 90% of Diquat", "result": "Cl."}
    ]},
    {"molecule": "CCCCCCCCCCCCCC(=O)N(CCC[N+](C)(C)C)CCC[N+](C)(C)C.[Cl-].[Cl-]", "note": "[C14MeCl]", "values": [
      {"measurement": "Compatibility observation, 100% of Diquat", "result": "Cl."},
      {"measurement": "Compatibility observation, 10% of Diquat", "result": "Cl."},
      {"measurement": "Compatibility observation, 20% of Diquat", "result": "Cl."},
      {"measurement": "Compatibility observation, 30% of Diquat", "result": "Cl."},
      {"measurement": "Compatibility observation, 40% of Diquat", "result": "Prec."},
      {"measurement": "Compatibility observation, 50% of Diquat", "result": "Cl."},
      {"measurement": "Compatibility observation, 60% of Diquat", "result": "Cl."},
      {"measurement": "Compatibility observation, 70% of Diquat", "result": "Cl."},
      {"measurement": "Compatibility observation, 80% of Diquat", "result": "Cl."},
      {"measurement": "Compatibility observation, 90% of Diquat", "result": "Cl."}
    ]},
    {"molecule": "CCCCCCCCCCCCCCCC(=O)N(CCC[N+](C)(C)C)CCC[N+](C)(C)C.[Cl-].[Cl-]", "note": "[C16MeCl]", "values": [
      {"measurement": "Compatibility observation, 100% of Diquat", "result": "Cl."},
      {"measurement": "Compatibility observation, 10% of Diquat", "result": "Cl."},
      {"measurement": "Compatibility observation, 20% of Diquat", "result": "Cl."},
      {"measurement": "Compatibility observation, 30% of Diquat", "result": "Visc."},
      {"measurement": "Compatibility observation, 40% of Diquat", "result": "Prec."},
      {"measurement": "Compatibility observation, 50% of Diquat", "result": "Cl."},
      {"measurement": "Compatibility observation, 60% of Diquat", "result": "Cl."},
      {"measurement": "Compatibility observation, 70% of Diquat", "result": "Cl."},
      {"measurement": "Compatibility observation, 80% of Diquat", "result": "Cl."},
      {"measurement": "Compatibility observation, 90% of Diquat", "result": "Cl."}
    ]}
  ]
}
